Measurements from ChEMBL document CHEMBL1201862, “PubChem BioAssay data set” (2004).
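Assay format: 96-well plates, 48-hour exposure. At the GI50, growth is halved.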 The source made the active and inactive calls. No stated cut-off is given here; in the data, active = GI50 up to about 1.1 µM and inactive = higher.

Tests used:
Test in all cases: growth of human tumour cells (NCI), 48 h
[1] = test system: A549
[2] = test system: BT-549
[3] = test system: CAKI-1
[4] = test system: DU-145
[5] = test system: HCT-15
[6] = test system: HOP-92
[7] = test system: Hs-578T
[8] = test system: K562
[9] = test system: LOX IMVI
[10] = test system: MDA-MB-435
[11] = test system: NCI-H226
[12] = test system: NCI-H23
[13] = test system: NCI-H460
[14] = test system: PC-3
[15] = test system: RXF 393
[16] = test system: SF-268
[17] = test system: SF-539
[18] = test system: SK-MEL-2
[19] = test system: UACC-62
[20] = test system: KM-20L2

Row | Compound | GI50 [1] | GI50 [2] | GI50 [3] | GI50 [4] | GI50 [5] | GI50 [6] | GI50 [7] | GI50 [8] | GI50 [9] | GI50 [10] | GI50 [11] | GI50 [12] | GI50 [13] | GI50 [14] | GI50 [15] | GI50 [16] | GI50 [17] | GI50 [18] | GI50 [19] | GI50 [20]
1 | NP(=O)(OCC1=CC(=O)c2ccccc2C1=O)N(CCBr)CCBr (stereo not drawn) | 4.17 µM (inactive) | 2.09 µM (inactive) | 0.843 µM (active) | 5.04 µM (inactive) | 5.13 µM | 13.3 µM (inactive) | 31.5 µM (inactive) | 3.05 µM (inactive) | 3.96 µM (inactive) | 2.14 µM (inactive) | 6.58 µM (inactive) | 3.03 µM (inactive) | 1.79 µM (inactive) | 10.9 µM (inactive) | 7.4 µM (inactive) | 11.2 µM (inactive) | 3.99 µM (inactive) | 4.26 µM (inactive) | 2.24 µM (inactive) | 
2 | O=C1c2ccccc2-c2c1c1ccccc1c(=O)n2CCO | 5.27 µM (inactive) | 18.5 µM (inactive) | 3.53 µM (inactive) | 13.5 µM (inactive) | 5.83 µM | 29.5 µM (inactive) | 29.8 µM (inactive) | > 36 µM (inactive) | 5.28 µM (inactive) | > 72.9 µM (inactive) | 6.84 µM (inactive) | 14.1 µM (inactive) | 1.82 µM (inactive) | 21.5 µM (inactive) | 32.1 µM (inactive) | 19.1 µM (inactive) | 10.6 µM (inactive) | 39.6 µM (inactive) | 11.5 µM (inactive) | 
3 | COc1ccc2c(c1)CCc1c(-c3noc4c3CCc3cc(OC)ccc3-4)noc1-2 | > 100 µM (inactive) | > 100 µM (inactive) | > 100 µM (inactive) | > 100 µM (inactive) | > 100 µM | > 100 µM (inactive) | > 100 µM (inactive) | > 100 µM (inactive) | > 100 µM (inactive) | > 100 µM (inactive) | > 100 µM (inactive) | > 100 µM (inactive) | > 100 µM (inactive) | > 100 µM (inactive) | > 100 µM (inactive) | > 100 µM (inactive) | > 100 µM (inactive) | > 100 µM (inactive) | > 100 µM (inactive) | 
4 | O=c1[nH]/c(=C/c2ccc3c(c2)OCO3)c(=O)[nH]/c1=C/c1ccc2c(c1)OCO2 | > 10 µM (inactive) | > 10 µM (inactive) | > 10 µM (inactive) | > 10 µM (inactive) | > 10 µM | > 10 µM (inactive) | > 10 µM (inactive) | > 10 µM (inactive) | > 10 µM (inactive) | > 10 µM (inactive) | > 10 µM (inactive) | > 10 µM (inactive) | > 10 µM (inactive) | > 10 µM (inactive) | > 10 µM (inactive) | > 10 µM (inactive) | > 10 µM (inactive) | > 10 µM (inactive) | > 10 µM (inactive) | 
5 | N=C(N)NCCCC(NCc1c2ccccc2[n+]([O-])c2ccccc12)C(=O)O (stereo not drawn) | > 100 µM (inactive) |  | 60.8 µM (inactive) |  | 32.9 µM |  |  | 29.7 µM (inactive) | 34.5 µM (inactive) |  | 35.5 µM (inactive) | 42.2 µM (inactive) | 41.6 µM (inactive) |  |  | 33.8 µM (inactive) |  | > 100 µM (inactive) | 54.8 µM (inactive) | 42.9 µM (inactive)
6 | CN(C)CCN(c1ccccn1)c1ccccn1 | > 100 µM (inactive) | > 100 µM (inactive) | > 100 µM (inactive) | > 100 µM (inactive) | > 100 µM | > 100 µM (inactive) | > 100 µM (inactive) | > 100 µM (inactive) | > 100 µM (inactive) | > 100 µM (inactive) | > 100 µM (inactive) | > 100 µM (inactive) | > 100 µM (inactive) | > 100 µM (inactive) | > 100 µM (inactive) | > 100 µM (inactive) | > 100 µM (inactive) | > 100 µM (inactive) | > 100 µM (inactive) | 
7 | C=CCN1C[C@H](C)N([C@H](c2ccc(C(=O)NC(CC)CC)cc2)c2cccc(OC)c2)C[C@H]1C | 33.9 µM (inactive) | 29.1 µM (inactive) | 22.6 µM (inactive) | 81.8 µM (inactive) | 29.4 µM | 31.7 µM (inactive) | > 100 µM (inactive) | 32.4 µM (inactive) | 4.38 µM (inactive) | 35.6 µM (inactive) | 70.5 µM (inactive) | 43.2 µM (inactive) | 31 µM (inactive) | 31.1 µM (inactive) | 33.7 µM (inactive) | 83.2 µM (inactive) | 20.4 µM (inactive) | 20.9 µM (inactive) | 20.8 µM (inactive) | 
8 | Nn1c(-c2ccccc2Cl)nc2ccccc2c1=O | > 100 µM (inactive) |  | > 100 µM (inactive) |  | > 100 µM | > 100 µM (inactive) |  | > 100 µM (inactive) |  |  | 57 µM (inactive) | > 100 µM (inactive) | > 100 µM (inactive) |  |  | > 100 µM (inactive) | > 100 µM (inactive) | > 100 µM (inactive) | > 100 µM (inactive) | > 100 µM (inactive)
9 | COc1ccccc1NC1Oc2cc3c(cc2C(c2cc(OC)c(OC)c(OC)c2)C1C)OCO3 (stereo not drawn) | 4.53 µM (inactive) | 2.84 µM (inactive) | 2.22 µM (inactive) | 4.75 µM (inactive) | 3.06 µM | 3.24 µM (inactive) | 6.44 µM (inactive) | 0.875 µM (active) | 6.62 µM (inactive) | 0.242 µM (active) | 4.35 µM (inactive) | 4.46 µM (inactive) | 4.09 µM (inactive) | 1.12 µM (active) | 1.14 µM (inactive) | 3.62 µM (inactive) | 1.7 µM (inactive) | 5.85 µM (inactive) | 1.53 µM (inactive) | 
10 | O=C(CSc1nc(O)nc2[nH]cnc12)Nc1ccccc1 | > 100 µM (inactive) | 46.9 µM (inactive) | > 100 µM (inactive) | > 100 µM (inactive) | 61.9 µM | > 100 µM (inactive) | 75 µM (inactive) | 85.3 µM (inactive) | 54.5 µM (inactive) | 53.1 µM (inactive) | 37.1 µM (inactive) | > 100 µM (inactive) | > 100 µM (inactive) | 36.6 µM (inactive) | > 100 µM (inactive) | 69.2 µM (inactive) | 26.2 µM (inactive) | > 100 µM (inactive) | 80.7 µM (inactive) | 
11 | CCN(CC)CCCC(C)Nc1c2cc(OC)cc(C)c2nc2c(C)c(Cl)ccc12 (stereo not drawn) | 1.89 µM (inactive) |  | 1.92 µM (inactive) |  | 1.78 µM | 1.22 µM (inactive) |  | 1.83 µM (inactive) | 2.02 µM (inactive) |  | 1.82 µM (inactive) | 1.48 µM (inactive) | 1.8 µM (inactive) |  | 2.09 µM (inactive) | 1.97 µM (inactive) |  | 1.87 µM (inactive) | 1.79 µM (inactive) | 1.86 µM (inactive)
12 | COc1ccc2cc3n(c(=O)c2c1)CCc1c-3cc(OC)c(OC)c1OC | > 100 µM (inactive) |  | > 100 µM (inactive) |  | > 100 µM | > 100 µM (inactive) |  | > 100 µM (inactive) |  |  | > 100 µM (inactive) | > 100 µM (inactive) |  |  |  | > 100 µM (inactive) | 60 µM (inactive) | 56 µM (inactive) | > 100 µM (inactive) | > 100 µM (inactive)
